Experimental data taken from patent US4100346A, “Certain 7(o-amino-methyl- or methylaminomethylphenyl- or cyclohexadienyl- or thienylacetamide)-3[1-carboxymethyl-(or ethyl- or propyl-)-tetrazol-5-ylthiomethyl]-3-cephem-4-carboxylic acids” (Bristol-Myers Company, priority 1976, dated 1978).
In brackets after ≈: the same amount, converted by molar mass. Where two headings read alike, the source gives them in different places.

Experiments:
[1] = test system: β-lactamase Class IV Type a, Klebsiella pneumoniae 53; format: biochemical
Protocol: (§1) Miscellaneous. Methods for determining bactericidal activity and susceptibility to cell-free β-lactamase were those previously used; Leitner et al., BL-S640, A Cephalosporin With a Broad Spectrum of Antibacterial Activity: Properties in vitro, Antimicrob. Agents Chemother.
(§2) Susceptibility to β-lactamase. Susceptibility to enzymic hydrolysis was assessed by determining relative rates of hydrolysis by cell-free preparations of various β-lactamases (Table 6).

[2] = test system: β-lactamase Class II Type a, Proteus mirabilis 1266; format: biochemical
Protocol: as §1, §2

[3] = biological target: T1, β-lactamase Class III Type a, Escherichia coli TEM (Escherichia coli, UniProt P62593); format: biochemical
T1 construct: cell-free preparations of various β-lactamases; endogenous in cells; host or cells: Escherichia coli strain TEM
T1 sequence (P62593 24-286 limits assumed): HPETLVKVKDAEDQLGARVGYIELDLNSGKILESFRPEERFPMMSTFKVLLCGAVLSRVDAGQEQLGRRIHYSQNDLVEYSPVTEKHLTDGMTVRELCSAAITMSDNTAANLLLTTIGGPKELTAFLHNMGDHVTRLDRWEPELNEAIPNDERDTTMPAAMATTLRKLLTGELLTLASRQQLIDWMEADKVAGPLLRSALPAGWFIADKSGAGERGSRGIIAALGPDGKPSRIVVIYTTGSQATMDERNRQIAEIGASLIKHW
Protocol: as §1, §2

[4] = test system: β-lactamase Class IV Type b, Klebsiella pneumoniae 1169; format: biochemical
Protocol: as §1, §2

[5] = biological target: β-lactamase Class I Type b, Escherichia coli 719 (Escherichia coli, UniProt P00811); format: biochemical
Chain of β-lactamase Class I Type b, Escherichia coli 719 (P00811 20-377): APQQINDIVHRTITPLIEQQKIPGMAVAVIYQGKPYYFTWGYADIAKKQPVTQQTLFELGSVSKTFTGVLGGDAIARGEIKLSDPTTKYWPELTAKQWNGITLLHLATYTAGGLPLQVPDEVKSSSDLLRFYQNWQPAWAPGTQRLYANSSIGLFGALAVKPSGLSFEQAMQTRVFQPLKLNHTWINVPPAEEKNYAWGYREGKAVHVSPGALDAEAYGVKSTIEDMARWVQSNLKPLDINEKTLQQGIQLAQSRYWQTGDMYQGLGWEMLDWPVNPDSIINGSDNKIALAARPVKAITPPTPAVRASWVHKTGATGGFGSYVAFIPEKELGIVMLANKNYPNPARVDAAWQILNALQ
Protocol: as §1, §2

[6] = biological target: β-lactamase Class I Type a, Enterobacter cloacae 214 (Enterobacter cloacae, UniProt P05364); format: biochemical
Chain of β-lactamase Class I Type a, Enterobacter cloacae 214 (P05364 21-381): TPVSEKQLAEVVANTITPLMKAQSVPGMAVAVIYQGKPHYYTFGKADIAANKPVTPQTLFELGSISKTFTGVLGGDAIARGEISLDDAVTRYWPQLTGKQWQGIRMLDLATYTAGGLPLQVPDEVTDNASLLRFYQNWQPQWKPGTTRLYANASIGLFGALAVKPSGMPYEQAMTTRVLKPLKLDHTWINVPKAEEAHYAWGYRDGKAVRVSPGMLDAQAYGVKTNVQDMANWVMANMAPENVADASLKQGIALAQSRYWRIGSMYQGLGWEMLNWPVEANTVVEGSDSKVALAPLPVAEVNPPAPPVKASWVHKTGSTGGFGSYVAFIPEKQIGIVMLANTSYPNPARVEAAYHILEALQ
Protocol: as §1, §2

Enterobacter aerogenes [7] = assay: Effect of inoculum size on susceptibility of Enterobacteriaceae; settings: Klebsiella aerogenes, read-out: Minimum Inhibitory Concentration, Enterobacter aerogenes strain 1
Pasteurella multocida = assay: Growth inhibitory activity, antibiotic dilution technique; settings: read-out: Minimum inhibitory concentration
Arizona hinshawii = assay: as above; settings: Salmonella enterica, read-out: Minimum inhibitory concentration
Proteus rettgeri = assay: Minimum growth inhibitory and bactericidal concentrations for Enterobacteriaceae; format: cell-based; settings: Providencia rettgeri, inoculum 10^4 cells; for MBC: read-out: MBC, minimum bactericidal concentration; for MIC: read-out: MIC, Minimum growth inhibitory concentration
Excerpt: (§3) Miscellaneous. Methods for determining bactericidal activity and susceptibility to cell-free β-lactamase were those previously used; Leitner et al., BL-S640, A Cephalosporin With a Broad Spectrum of Antibacterial Activity: Properties in vitro, Antimicrob. Agents Chemother. 7:298-305 (1975).
(§4) *MIC, Minimum growth inhibitory concentration; MBC, minimum bactericidal
(§5) concentration; expressed as micrograms per milliliter. The inoculum was […]

Enterobacter cloacae = assay: as above; format: cell-based; settings: for MBC: read-out: MBC, minimum bactericidal concentration; for MIC: read-out: MIC, Minimum growth inhibitory concentration
Excerpt: as §3, §4, §5

Escherichia coli [8] = assay: as above; format: cell-based; settings: for MBC: read-out: MBC, minimum bactericidal concentration; for MIC: read-out: MIC, Minimum growth inhibitory concentration
Excerpt: as §3, §4, §5

Proteus vulgaris = assay: as above; format: cell-based; settings: Proteus vulgaris, inoculum 10^4 cells; for MBC: read-out: MBC, minimum bactericidal concentration; for MIC: read-out: MIC, Minimum growth inhibitory concentration
Excerpt: as §3, §4, §5

Klebsiella pneumoniae = assay: as above; format: cell-based; settings: for MBC: read-out: MBC, minimum bactericidal concentration; for MIC: read-out: MIC, Minimum growth inhibitory concentration
Excerpt: as §3, §4, §5

Enterobacter aerogenes [9] = assay: as above; format: cell-based; settings: Klebsiella aerogenes, inoculum 10^4 cells; for MBC: read-out: MBC, minimum bactericidal concentration; for MIC: read-out: MIC, Minimum growth inhibitory concentration
Excerpt: as §3, §4, §5

Proteus mirabilis = assay: as above; format: cell-based; settings: for MBC: read-out: MBC, minimum bactericidal concentration; for MIC: read-out: MIC, Minimum growth inhibitory concentration
Excerpt: as §3, §4, §5

Erwinia sp. = assay: Growth inhibitory activity, antibiotic dilution technique; settings: read-out: Minimum inhibitory concentration
Citrobacter sp. = assay: as above
Escherichia coli [10] = assay: Effect of inoculum size on susceptibility of Enterobacteriaceae
Neisseria gonorrhoeae = assay: Growth inhibitory activity, antibiotic dilution technique
[11] = Enterobacter cloacae strain 3, inoculum 10^4 cells
[12] = Enterobacter cloacae strain 4, inoculum 10^4 cells
[13] = Enterobacter cloacae strain 8, inoculum 10^4 cells
[14] = Escherichia coli strain 1, inoculum 10^4 cells
[15] = Escherichia coli strain 2, inoculum 10^4 cells
[16] = Escherichia coli strain 3, inoculum 10^4 cells
[17] = Escherichia coli strain 4, inoculum 10^4 cells
[18] = Escherichia coli strain 5, inoculum 10^4 cells
[19] = Escherichia coli strain 6, inoculum 10^4 cells
[20] = Klebsiella pneumoniae strain 1, inoculum 10^4 cells
[21] = Klebsiella pneumoniae strain 2, inoculum 10^4 cells
[22] = Klebsiella pneumoniae strain 3, inoculum 10^4 cells
[23] = Klebsiella pneumoniae strain 4, inoculum 10^4 cells
[24] = Klebsiella pneumoniae strain 5, inoculum 10^4 cells
[25] = Klebsiella pneumoniae strain 6, inoculum 10^4 cells
[26] = Enterobacter aerogenes strain 1
[27] = Enterobacter aerogenes strain 2
[28] = Enterobacter aerogenes strain 3
[29] = Proteus mirabilis strain 1, inoculum 10^4 cells
[30] = Proteus mirabilis strain 2, inoculum 10^4 cells
[31] = Proteus mirabilis strain 3, inoculum 10^4 cells
[32] = Proteus mirabilis strain 4, inoculum 10^4 cells
[33] = Proteus mirabilis strain 5, inoculum 10^4 cells

CC(=O)OCC1=C(C(=O)O)N2C(=O)[C@@H](NC(=O)Cc3cccs3)[C@H]2SC1 [Cephalothin]
Relative Rate of Hydrolysis (benzylpenicillin = 100) [1]: 8 | Relative Rate of Hydrolysis (benzylpenicillin = 100) [2]: < 1 | Relative Rate of Hydrolysis (benzylpenicillin = 100) [3]: 9 | Relative Rate of Hydrolysis (benzylpenicillin = 100) [4]: 43 | Relative Rate of Hydrolysis (benzylpenicillin = 100) [5]: 480 | Relative Rate of Hydrolysis (benzylpenicillin = 100) [6]: 2100 | MIC (Enterobacter aerogenes [7]; A, Inoculum of 10^2 organisms): 32 µg/mL (≈ 80.7 µM) | MIC (Enterobacter aerogenes [7]; B, Inoculum of 10^6 organisms): > 250 µg/mL | MIC (Pasteurella multocida): 0.09 µg/mL (≈ 0.227 µM) | MIC (Arizona hinshawii): 2.8 µg/mL (≈ 7.06 µM) | MBC (Proteus rettgeri; Proteus rettgeri strain 2): 2 µg/mL (≈ 5.04 µM) | MIC (Proteus rettgeri; Proteus rettgeri strain 2): 1 µg/mL (≈ 2.52 µM) | MBC (Proteus rettgeri; Proteus rettgeri strain 3): 250 µg/mL (≈ 631 µM) | MIC (Proteus rettgeri; Proteus rettgeri strain 3): 125 µg/mL (≈ 315 µM) | MBC (Enterobacter cloacae; [11]): 63 µg/mL (≈ 159 µM) | MIC (Enterobacter cloacae; [11]): 32 µg/mL (≈ 80.7 µM) | MBC (Enterobacter cloacae; [12]): > 250 µg/mL | MIC (Enterobacter cloacae; [12]): 250 µg/mL (≈ 631 µM) | MBC (Enterobacter cloacae; [13]): > 250 µg/mL | MIC (Enterobacter cloacae; [13]): > 250 µg/mL | MBC (Escherichia coli [8]; [14]): 16 µg/mL (≈ 40.4 µM) | MIC (Escherichia coli [8]; [14]): 8 µg/mL (≈ 20.2 µM) | MBC (Escherichia coli [8]; [15]): 32 µg/mL (≈ 80.7 µM) | MIC (Escherichia coli [8]; [15]): 32 µg/mL (≈ 80.7 µM) | MBC (Escherichia coli [8]; [16]): 8 µg/mL (≈ 20.2 µM) | MIC (Escherichia coli [8]; [16]): 4 µg/mL (≈ 10.1 µM) | MBC (Escherichia coli [8]; [17]): 16 µg/mL (≈ 40.4 µM) | MIC (Escherichia coli [8]; [17]): 8 µg/mL (≈ 20.2 µM) | MBC (Escherichia coli [8]; [18]): 16 µg/mL (≈ 40.4 µM) | MIC (Escherichia coli [8]; [18]): 16 µg/mL (≈ 40.4 µM) | MBC (Escherichia coli [8]; [19]): 16 µg/mL (≈ 40.4 µM) | MIC (Escherichia coli [8]; [19]): 16 µg/mL (≈ 40.4 µM) | MBC (Proteus vulgaris; Proteus vulgaris strain 1): 2 µg/mL (≈ 5.04 µM) | MIC (Proteus vulgaris; Proteus vulgaris strain 1): 1 µg/mL (≈ 2.52 µM) | MBC (Proteus vulgaris; Proteus vulgaris strain 2): 16 µg/mL (≈ 40.4 µM) | MIC (Proteus vulgaris; Proteus vulgaris strain 2): 8 µg/mL (≈ 20.2 µM) | MBC (Proteus vulgaris; Proteus vulgaris strain 4): 16 µg/mL (≈ 40.4 µM) | MIC (Proteus vulgaris; Proteus vulgaris strain 4): 8 µg/mL (≈ 20.2 µM) | MBC (Klebsiella pneumoniae; [20]): 2 µg/mL (≈ 5.04 µM) | MIC (Klebsiella pneumoniae; [20]): 2 µg/mL (≈ 5.04 µM) | MBC (Klebsiella pneumoniae; [21]): 8 µg/mL (≈ 20.2 µM) | MIC (Klebsiella pneumoniae; [21]): 4 µg/mL (≈ 10.1 µM) | MBC (Klebsiella pneumoniae; [22]): 4 µg/mL (≈ 10.1 µM) | MIC (Klebsiella pneumoniae; [22]): 2 µg/mL (≈ 5.04 µM) | MBC (Klebsiella pneumoniae; [23]): 4 µg/mL (≈ 10.1 µM) | MIC (Klebsiella pneumoniae; [23]): 4 µg/mL (≈ 10.1 µM) | MBC (Klebsiella pneumoniae; [24]): 8 µg/mL (≈ 20.2 µM) | MIC (Klebsiella pneumoniae; [24]): 8 µg/mL (≈ 20.2 µM) | MBC (Klebsiella pneumoniae; [25]): 2 µg/mL (≈ 5.04 µM) | MIC (Klebsiella pneumoniae; [25]): 2 µg/mL (≈ 5.04 µM) | MBC (Enterobacter aerogenes [9]; [26]): 250 µg/mL (≈ 631 µM) | MIC (Enterobacter aerogenes [9]; [26]): 125 µg/mL (≈ 315 µM) | MBC (Enterobacter aerogenes [9]; [27]): > 250 µg/mL | MIC (Enterobacter aerogenes [9]; [27]): 125 µg/mL (≈ 315 µM) | MBC (Enterobacter aerogenes [9]; [28]): > 250 µg/mL | MIC (Enterobacter aerogenes [9]; [28]): 250 µg/mL (≈ 631 µM) | MBC (Proteus mirabilis; [29]): 32 µg/mL (≈ 80.7 µM) | MIC (Proteus mirabilis; [29]): 8 µg/mL (≈ 20.2 µM) | MBC (Proteus mirabilis; [30]): 32 µg/mL (≈ 80.7 µM) | MIC (Proteus mirabilis; [30]): 8 µg/mL (≈ 20.2 µM) | MBC (Proteus mirabilis; [31]): 8 µg/mL (≈ 20.2 µM) | MIC (Proteus mirabilis; [31]): 8 µg/mL (≈ 20.2 µM) | MBC (Proteus mirabilis; [32]): 8 µg/mL (≈ 20.2 µM) | MIC (Proteus mirabilis; [32]): 4 µg/mL (≈ 10.1 µM) | MBC (Proteus mirabilis; [33]): 16 µg/mL (≈ 40.4 µM) | MIC (Proteus mirabilis; [33]): 8 µg/mL (≈ 20.2 µM) | MIC (Erwinia sp.): 5.3 µg/mL (≈ 13.4 µM) | MIC (Citrobacter sp.; read-out: Minimum inhibitory concentration, Citrobacter sp., 1 strain): > 125 µg/mL | MIC (Citrobacter sp.; read-out: Minimum inhibitory concentration, Citrobacter sp., 4 strains, geometric mean when applicable): 63 µg/mL (≈ 159 µM) | MIC (Escherichia coli [10]; read-out: Minimum Inhibitory Concentration, Escherichia coli strain 1, A, Inoculum of 10^2 organisms): 8 µg/mL (≈ 20.2 µM) | MIC (Escherichia coli [10]; read-out: Minimum Inhibitory Concentration, Escherichia coli strain 1, B, Inoculum of 10^6 organisms): 32 µg/mL (≈ 80.7 µM) | MIC (Escherichia coli [10]; read-out: Minimum Inhibitory Concentration, Escherichia coli strain 2, A, Inoculum of 10^2 organisms): 16 µg/mL (≈ 40.4 µM) | MIC (Escherichia coli [10]; read-out: Minimum Inhibitory Concentration, Escherichia coli strain 2, B, Inoculum of 10^6 organisms): 32 µg/mL (≈ 80.7 µM) | MIC (Escherichia coli [10]; read-out: Minimum Inhibitory Concentration, Escherichia coli strain 3, A, Inoculum of 10^2 organisms): 4 µg/mL (≈ 10.1 µM) | MIC (Escherichia coli [10]; read-out: Minimum Inhibitory Concentration, Escherichia coli strain 3, B, Inoculum of 10^6 organisms): 16 µg/mL (≈ 40.4 µM) | MIC (Escherichia coli [10]; read-out: Minimum Inhibitory Concentration, Escherichia coli strain 4, A, Inoculum of 10^2 organisms): 4 µg/mL (≈ 10.1 µM) | MIC (Escherichia coli [10]; read-out: Minimum Inhibitory Concentration, Escherichia coli strain 4, B, Inoculum of 10^6 organisms): 32 µg/mL (≈ 80.7 µM) | MIC (Escherichia coli [10]; read-out: Minimum Inhibitory Concentration, Escherichia coli strain 5, A, Inoculum of 10^2 organisms): 4 µg/mL (≈ 10.1 µM) | MIC (Escherichia coli [10]; read-out: Minimum Inhibitory Concentration, Escherichia coli strain 5, B, Inoculum of 10^6 organisms): 32 µg/mL (≈ 80.7 µM) | MIC (Escherichia coli [10]; read-out: Minimum Inhibitory Concentration, Escherichia coli strain 6, A, Inoculum of 10^2 organisms): 8 µg/mL (≈ 20.2 µM) | MIC (Escherichia coli [10]; read-out: Minimum Inhibitory Concentration, Escherichia coli strain 6, B, Inoculum of 10^6 organisms): 16 µg/mL (≈ 40.4 µM) | MIC (Escherichia coli [10]; read-out: Minimum Inhibitory Concentration, Escherichia coli strain 7, A, Inoculum of 10^2 organisms): 1 µg/mL (≈ 2.52 µM) | MIC (Escherichia coli [10]; read-out: Minimum Inhibitory Concentration, Escherichia coli strain 7, B, Inoculum of 10^6 organisms): 8 µg/mL (≈ 20.2 µM) | susceptibility of Neisseria gonorrhoeae (Neisseria gonorrhoeae): equally susceptible
